Read-outs that look alike come from different tables or passages of the source.
Experiments:
Safety assessments = assay type: in vivo, human; conditions: per treatment period; for incidences of changes in diastolic blood pressure / incidences of changes in systolic blood pressure: potentially clinically relevant changes from baseline; for Patients who experienced AEs considered to be related to the study drug: treatment-emergent
[1] = humans, over 24 h; cited from earlier work
[2] = cited from earlier work
JAK2 = conditions: cited from earlier work
JAK3 = conditions: cited from earlier work
OAT1 = biological target: T1, OAT1 (Homo sapiens, UniProt Q4U2R8); assay: OAT1-mediated inhibition assay in S2 cells; assay type: in vitro ADME; conditions: OAT1-expressing S2 cells
T1 sequence (Q4U2R8 1-563): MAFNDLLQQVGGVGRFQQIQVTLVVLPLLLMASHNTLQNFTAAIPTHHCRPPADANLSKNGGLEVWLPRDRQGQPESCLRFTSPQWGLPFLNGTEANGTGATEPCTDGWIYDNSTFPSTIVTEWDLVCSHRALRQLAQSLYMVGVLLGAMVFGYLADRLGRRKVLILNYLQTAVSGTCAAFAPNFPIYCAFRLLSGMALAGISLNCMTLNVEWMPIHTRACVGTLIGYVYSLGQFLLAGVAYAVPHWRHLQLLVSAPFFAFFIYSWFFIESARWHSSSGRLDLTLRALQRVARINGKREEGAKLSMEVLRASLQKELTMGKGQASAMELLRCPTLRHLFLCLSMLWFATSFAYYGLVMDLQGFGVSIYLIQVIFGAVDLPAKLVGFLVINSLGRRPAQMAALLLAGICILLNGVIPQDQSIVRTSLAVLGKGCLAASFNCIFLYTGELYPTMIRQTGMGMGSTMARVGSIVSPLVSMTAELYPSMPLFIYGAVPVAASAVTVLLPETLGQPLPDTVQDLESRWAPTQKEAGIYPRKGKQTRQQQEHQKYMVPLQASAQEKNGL

human MRP4 = biological target: T2, human MRP4 (Homo sapiens, UniProt O15439); assay: MRP4-mediated vesicular transport assay; assay type: in vitro ADME; conditions: membrane vesicles, peficitinib up to 100 μmol/L
T2 sequence (O15439 1-1325): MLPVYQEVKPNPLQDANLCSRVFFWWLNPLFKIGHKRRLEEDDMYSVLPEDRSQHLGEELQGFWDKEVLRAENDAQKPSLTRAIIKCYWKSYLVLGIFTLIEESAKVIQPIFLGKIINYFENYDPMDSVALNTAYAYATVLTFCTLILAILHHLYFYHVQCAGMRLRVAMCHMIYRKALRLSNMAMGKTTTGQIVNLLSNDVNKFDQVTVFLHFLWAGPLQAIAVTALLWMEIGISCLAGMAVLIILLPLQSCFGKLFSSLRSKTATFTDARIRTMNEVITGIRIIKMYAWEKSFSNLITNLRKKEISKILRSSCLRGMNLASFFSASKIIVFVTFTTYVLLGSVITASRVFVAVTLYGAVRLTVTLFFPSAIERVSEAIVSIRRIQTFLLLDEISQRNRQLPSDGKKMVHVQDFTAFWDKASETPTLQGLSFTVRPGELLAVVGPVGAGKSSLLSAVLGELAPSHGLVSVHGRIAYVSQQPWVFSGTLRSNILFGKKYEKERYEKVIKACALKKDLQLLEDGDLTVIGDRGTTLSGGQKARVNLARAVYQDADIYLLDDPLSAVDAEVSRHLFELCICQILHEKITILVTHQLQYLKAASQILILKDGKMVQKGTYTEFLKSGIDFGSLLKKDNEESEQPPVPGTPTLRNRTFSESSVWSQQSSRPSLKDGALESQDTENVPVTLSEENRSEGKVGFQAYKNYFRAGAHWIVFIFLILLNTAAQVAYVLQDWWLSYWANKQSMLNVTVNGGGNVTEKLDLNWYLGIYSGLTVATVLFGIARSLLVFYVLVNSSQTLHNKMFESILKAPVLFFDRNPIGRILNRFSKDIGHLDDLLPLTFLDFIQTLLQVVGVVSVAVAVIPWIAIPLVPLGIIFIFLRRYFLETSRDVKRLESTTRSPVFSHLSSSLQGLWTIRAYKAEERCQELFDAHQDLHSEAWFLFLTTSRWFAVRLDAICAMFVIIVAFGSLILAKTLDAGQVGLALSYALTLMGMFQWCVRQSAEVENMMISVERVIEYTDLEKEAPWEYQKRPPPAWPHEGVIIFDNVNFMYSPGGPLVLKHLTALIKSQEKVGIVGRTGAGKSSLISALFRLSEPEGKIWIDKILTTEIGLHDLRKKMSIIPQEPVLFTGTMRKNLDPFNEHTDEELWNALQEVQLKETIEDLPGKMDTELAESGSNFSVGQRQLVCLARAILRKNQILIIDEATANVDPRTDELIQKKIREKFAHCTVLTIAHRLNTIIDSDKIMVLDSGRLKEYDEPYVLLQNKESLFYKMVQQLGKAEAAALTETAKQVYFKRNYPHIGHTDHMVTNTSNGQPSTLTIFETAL

OAT3 = biological target: T3, OAT3 (Homo sapiens, UniProt Q8TCC7); assay: OAT3-mediated inhibition assay in S2 cells; assay type: in vitro ADME
T3 sequence (Q8TCC7 1-542): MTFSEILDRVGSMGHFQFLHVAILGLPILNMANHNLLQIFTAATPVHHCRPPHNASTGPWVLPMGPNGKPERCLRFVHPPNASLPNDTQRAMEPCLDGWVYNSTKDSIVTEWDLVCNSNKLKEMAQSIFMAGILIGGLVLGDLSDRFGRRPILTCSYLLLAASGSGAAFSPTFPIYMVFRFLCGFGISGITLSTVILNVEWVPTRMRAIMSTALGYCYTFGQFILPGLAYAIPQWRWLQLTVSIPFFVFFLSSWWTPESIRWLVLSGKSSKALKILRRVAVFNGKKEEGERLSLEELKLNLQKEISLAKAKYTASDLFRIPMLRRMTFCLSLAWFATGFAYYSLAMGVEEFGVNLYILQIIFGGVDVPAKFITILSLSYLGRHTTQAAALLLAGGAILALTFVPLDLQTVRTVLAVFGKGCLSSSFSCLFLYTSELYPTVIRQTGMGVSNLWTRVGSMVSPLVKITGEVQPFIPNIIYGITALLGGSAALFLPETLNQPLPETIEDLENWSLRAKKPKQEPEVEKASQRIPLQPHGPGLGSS

[3] = assay type: in vivo, human
JAK1 = conditions: cited from earlier work
[4] = human plasma; cited from earlier work
human BCRP = biological target: T4, human BCRP (Homo sapiens, UniProt Q9UNQ0); assay: BCRP-mediated vesicular transport assay; assay type: in vitro ADME
T4 sequence (Q9UNQ0 1-655): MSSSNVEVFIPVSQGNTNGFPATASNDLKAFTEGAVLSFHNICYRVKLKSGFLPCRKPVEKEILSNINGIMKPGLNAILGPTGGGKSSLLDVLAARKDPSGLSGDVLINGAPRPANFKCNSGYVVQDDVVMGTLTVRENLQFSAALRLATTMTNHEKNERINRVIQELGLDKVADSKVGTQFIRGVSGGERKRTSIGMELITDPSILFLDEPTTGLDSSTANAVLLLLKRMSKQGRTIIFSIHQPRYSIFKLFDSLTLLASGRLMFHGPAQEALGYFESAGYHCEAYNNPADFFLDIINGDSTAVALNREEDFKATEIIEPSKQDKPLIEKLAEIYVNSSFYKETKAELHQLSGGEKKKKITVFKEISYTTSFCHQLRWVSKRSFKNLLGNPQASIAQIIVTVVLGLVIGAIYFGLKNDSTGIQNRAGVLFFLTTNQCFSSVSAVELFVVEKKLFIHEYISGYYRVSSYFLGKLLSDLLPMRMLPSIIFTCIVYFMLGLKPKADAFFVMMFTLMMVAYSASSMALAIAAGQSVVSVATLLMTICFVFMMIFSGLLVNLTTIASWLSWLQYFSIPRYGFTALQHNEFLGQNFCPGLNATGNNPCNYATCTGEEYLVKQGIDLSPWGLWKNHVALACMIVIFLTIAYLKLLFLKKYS

[5] = healthy male subjects; cited from earlier work
tyrosine kinase 2 = conditions: cited from earlier work

CN(Cc1cnc2nc(N)nc(N)c2n1)c1ccc(C(=O)N[C@@H](CCC(=O)O)C(=O)O)cc1 [Methotrexate, reference compound]
incidences of either high or low pulse rates (Safety assessments): 2 | incidences of changes in diastolic blood pressure (Safety assessments): 7 | incidences of changes in systolic blood pressure (Safety assessments): 4 | Nausea (Safety assessments; treatment-emergent AE): 2 (13.3) n (%) | Patients who experienced AEs considered to be related to the study drug (Safety assessments): 2 (13.3) n (%) | dose excreted unchanged in urine [1]: over 80% | effect on the pharmacokinetics of tofacitinib [2]: did not significantly affect the pharmacokinetics of tofacitinib

NC(=O)c1cnc2[nH]ccc2c1N[C@@H]1[C@@H]2CC3C[C@H]1C[C@@](O)(C3)C2 [Peficitinib]
IC50 (JAK2): 5 nM | IC50 (JAK3): […] | inhibitory effect on OAT1 (OAT1): no significant inhibitory effects | inhibitory effect on MRP4 (human MRP4): no significant inhibitory effects | IC50 (OAT3): 5010 nM | day on which plasma concentrations reached steady state ([3]; 100 mg BID from Day 3, contrast test of Ctrough): […] | decrease of peficitinib Cmax with methotrexate coadministration ([3]; Day 8 vs Day 7, from geometric mean ratio): 8% | Cmax ([3]; human, plasma, oral, 100 mg, individual maximum plasma Cmax, after 100 mg BID): 405 ng/mL | incidences of either high or low pulse rates (Safety assessments): 4 | incidences of changes in diastolic blood pressure (Safety assessments): 9 | incidences of changes in systolic blood pressure (Safety assessments): 3 | Flatulence (Safety assessments; treatment-emergent AE): 4 (28.6) n (%) | Patients who experienced AEs considered to be related to the study drug (Safety assessments): 4 (28.6) n (%) | IC50 (JAK1): 3.9 nM | bound to protein [4]: 76–78% | IC50 (human BCRP): 13500 nM | dose excreted unchanged in urine [5]: 14% | oral dose excreted in feces [5]: approximately 57% | oral dose excreted in urine [5]: Approximately 37% | oral dose undergoing metabolism [5]: over 65% | IC50 (tyrosine kinase 2): 4.8 nM

From publication PMC7452880 (Clinical Drug Investigation, 2020)
